In brackets after ≈: the same amount, converted by molar mass. Read-outs that look alike come from different tables or passages of the source.
Key:
[1] = tested on: Candida duobushaemulonii AR Bank #391; test: MIC determination by in vitro antifungal assay; format: cell-based
Experimental: (§1) The antifungal agent amphotericin B (AmB) was purchased from VWR (Radnor PA, USA). AmB was dissolved in DMSO at a final concentration of 5 mg/mL and was stored at −20° C., protected from light. Candida albicans American Type Culture Collection (ATCC) 10231 (strain A), C. albicans ATCC 64124 (B), and C. albicans ATCC MYA-2876 (C) were obtained from Utah State University. C. albicans ATCC 90819 (D), C. albicans ATCC MYA-2310 (E), C. albicans ATCC MYA-1237 (F), C. albicans ATCC MYA-1003 (G), Candida glabrata ATCC 2001 (H), Candida krusei ATCC 6258 (I), Candida parapsilosis ATCC 22019 (J), Cryptococcus neoformans ATCC MYA-895 (M), Aspergillus terreus ATCC MYA-3633 (N), and Aspergillus flavus ATCC MYA-3631 (0) were obtained from the American Type Culture Collection (ATCC; Manassas, VA, USA). Aspergillus nidulans ATCC 38163 (P) was obtained from University of Kentucky. Clinically derived Aspergillus fumigatus NRRL 163 (Q), A. fumigatus NRRL 5109 (R), and A. fumigatus NRRL 6113 (S) were obtained from Northern Regional Research Laboratory (NRRL). Candida auris 384 (K), C. auris 390 (L), and fungal strains 381-400 (including 10 C. auris (AR Bank #381-390), 3 Candida duobushaemulonii (AR Bank #391, AR Bank #392, and AR Bank #394), 2 Candida haemulonii (AR Bank #393 and AR Bank #395), 1 Kodameae ohmeri (AR Bank #396), 1 C. krusei (AR Bank #397), 1 Candida lusitaniae (AR Bank #398), and 2 Saccharomyces cerevisiae strains (AR Bank #399 and AR Bank #400)) were part of a larger fungal library from the AR Bank maintained by the Centers for Disease Control and Prevention (CDC; Atlanta, GA, USA). Filamentous fungi and yeasts were cultivated at 35° C. in RPMI 1640 medium (with L-glutamine, without sodium bicarbonate, Sigma-Aldrich, St. Louis, MO) buffered to a pH of 7.0 with 0.165 M morpholinepropanesulfonic acid (MOPS) buffer (Sigma-Aldrich). For cytotoxicity assays, HepG2 and the mouse macrophage cell line J774A.1 were obtained from University of Kentucky. The human embryonic kidney cell line, HEK-293, was bought from the ATCC. Mammalian cells were grown in Dulbecco's Modified Eagle's Medium (DMEM) (from VWR) with 10% fetal bovine serum (FBS) (from VWR) and 1% Pen/Strep (from ATCC). Cell lines were cultured at 37° C. with 5% CO2 and passaged by trypsinization with 0.05% trypsin: 0.53 mM EDTA (from Sigma-Aldrich).
(§2) From the actively growing yeast culture, 100 µL were then transferred to 900 μL of RPMI 1640 medium and re-adjusted to achieve OD600 of 0.12 (˜1×10^6 CFU/mL). The cell suspension was further diluted to achieve 1:100 in RPMI 1640 medium.

[2] = tested on: Candida duobushaemulonii AR Bank #392; test: MIC determination by in vitro antifungal assay; format: cell-based
Experimental: as §1, §2

[3] = tested on: Candida duobushaemulonii AR Bank #394; test: MIC determination by in vitro antifungal assay; format: cell-based
Experimental: as §1, §2

[4] = tested on: Candida haemulonii AR Bank #393; test: MIC determination by in vitro antifungal assay; format: cell-based
Experimental: as §1, §2

[5] = tested on: Candida haemulonii AR Bank #395; test: MIC determination by in vitro antifungal assay; format: cell-based
Experimental: as §1, §2

[6] = tested on: Candida krusei AR Bank #397; test: MIC determination by in vitro antifungal assay; format: cell-based; settings: Candida strain AR Bank #397
Experimental: as §1, §2

[7] = tested on: Candida lusitaniae AR Bank #398; test: MIC determination by in vitro antifungal assay; format: cell-based; settings: Candida strain AR Bank #398
Experimental: as §1, §2

[8] = tested on: Kodameae ohmeri AR Bank #396; test: MIC determination by in vitro antifungal assay; format: cell-based; settings: strain AR Bank #396
Experimental: as §1, §2

[9] = tested on: Saccharomyces cerevisiae AR Bank #399; test: MIC determination by in vitro antifungal assay; format: cell-based
Experimental: as §1, §2

[10] = tested on: panel of ten C. auris strains (AR Bank #381-390); test: MIC determination, summary over the C. auris panel; format: cell-based, Candida auris; settings: Candidozyma auris
Experimental: as §1, §2

[11] = tested on: C. albicans ATCC 10231 (strain A) biofilm formation; test: Prevention of biofilm formation assay; format: cell-based, Candida albicans
Experimental: Biofilm prevention assays were set up identically to the ordinary MIC experiment, where compounds were diluted, and the fungi added. After overnight growth, the plates were washed as in the biofilm disruption assay and stained and measured in the same fashion.
A large amount of fungal cells were exposed to the monohydrazides at time 0 h to evaluate the effect of these compounds in the prevention of Candida biofilm formation (FIG. 5B). […] Although some of these monohydrazides were able to prevent biofilm formation, none of these compounds had any effect in terms of the disruption of already pre-formed biofilms (FIG. 5A).

[12] = Candidozyma duobushaemuli, read-out: MIC
[13] = Candidozyma haemuli, read-out: MIC
[14] = Pichia kudriavzevii, read-out: MIC
[15] = Clavispora lusitaniae, read-out: MIC
[16] = against all ten C. auris strains tested (AR Bank #381-390)

## O=C(NNc1ccc(F)cc1F)c1cnccn1 [Compound 9g]
[1]; [12]
  MIC: 0.49 µg/mL (≈ 1.96 µM)
[2]; [12]
  MIC: 0.24 µg/mL (≈ 0.959 µM)
[3]; [12]
  MIC: 7.8 µg/mL (≈ 31.2 µM)
[4]; [13]
  MIC: 0.24 µg/mL (≈ 0.959 µM)
[5]; [13]
  MIC: 1.95 µg/mL (≈ 7.79 µM)
[6]; [14]
  MIC: 1.95 µg/mL (≈ 7.79 µM)
[7]; [15]
  MIC: 3.9 µg/mL (≈ 15.6 µM)
[8]; read-out: MIC
  MIC: 0.98 µg/mL (≈ 3.92 µM)
[9]; read-out: MIC
  MIC: 7.8 µg/mL (≈ 31.2 µM)
[10]; [16]
  MIC: 0.12 to 7.8 µg/mL (≈ 0.48 to 31.2 µM)

## O=C(NNc1ccc(F)cc1F)c1cccc(F)n1 [Compound 5g]
[10]; [16]
  MIC: 0.12 to 7.8 µg/mL (≈ 0.449 to 29.2 µM)

## O=C(NNc1ccc(F)cc1)c1ccccn1 [Compound 2d]
[1]; [12]
  MIC: 0.49 µg/mL (≈ 2.12 µM)
[2]; [12]
  MIC: 0.49 µg/mL (≈ 2.12 µM)
[3]; [12]
  MIC: 0.24 µg/mL (≈ 1.04 µM)
[4]; [13]
  MIC: 0.24 µg/mL (≈ 1.04 µM)
[5]; [13]
  MIC: 0.12 µg/mL (≈ 0.519 µM)
[6]; [14]
  MIC: 0.24 µg/mL (≈ 1.04 µM)
[7]; [15]
  MIC: 1.95 µg/mL (≈ 8.43 µM)
[8]; read-out: MIC
  MIC: 0.24 µg/mL (≈ 1.04 µM)
[9]; read-out: MIC
  MIC: 3.9 µg/mL (≈ 16.9 µM)
[11]
  concentration active in prevention of biofilm formation: 1.96 j·tg mL^−1
[10]; [16]
  MIC: 0.12 to 7.8 µg/mL (≈ 0.519 to 33.7 µM)

## O=C(NNc1ccc(Cl)cc1)c1cnccn1 [Compound 9e]
[1]
  MIC: 1.95 μg/mL^−1
[2]
  MIC: 1.95 μg/mL^−1
[3]
  MIC: 1.95 μg/mL^−1
[4]
  MIC: 1.95 μg/mL^−1
[5]
  MIC: 3.9 μg/mL^−1
[6]
  MIC: 1.9 μg/mL^−1
[7]
  MIC: 3.9 μg/mL^−1
[8]
  MIC: 1.95 μg/mL^−1
[9]
  MIC: 3.9 μg/mL^−1

## O=C(NNc1ccc(F)cc1F)c1nc(F)ccc1F [Compound 8g]
[10]; all C. auris strains tested with the exception of AR Bank #390
  MIC: 0.49 to 1.95 µg/mL (≈ 1.72 to 6.84 µM)

## O=C(NNc1ccc(F)cc1)c1ccc(Br)cn1 [Compound 4d]
[10]; [16]
  MIC: 0.12 to 7.8 µg/mL (≈ 0.387 to 25.2 µM)

## O=C(NNc1ccc(Cl)cc1)c1ccccn1 [Compound 2e]
[1]
  MIC: 0.98 μg/mL^−1
[2]
  MIC: 0.98 μg/mL^−1
[3]
  MIC: 0.49 μg/mL^−1
[4]
  MIC: 0.49 μg/mL^−1
[5]
  MIC: 0.12 μg/mL^−1
[6]
  MIC: 0.24 μg/mL^−1
[7]
  MIC: 0.98 μg/mL^−1
[8]
  MIC: 0.24 μg/mL^−1
[9]
  MIC: 0.98 μg/mL^−1

## O=C(NNc1cccc(Cl)c1)c1ccccn1 [Compound 2b]
[1]
  MIC: 0.24 μg/mL^−1
[2]
  MIC: 0.24 μg/mL^−1
[3]
  MIC: 0.12 μg/mL^−1
[4]
  MIC: 0.12 μg/mL^−1
[5]
  MIC: ≤0.06 μg/mL^−1
[6]
  MIC: 0.12 μg/mL^−1
[7]
  MIC: 0.98 μg/mL^−1
[8]
  MIC: 0.12 μg/mL^−1
[9]
  MIC: 0.98 μg/mL^−1

## O=C(NNc1ccc(F)cc1)c1cccc(Br)n1 [Compound 6d]
[10]; [16]
  MIC: 0.12 to 7.8 µg/mL (≈ 0.387 to 25.2 µM)

## O=C(NNc1ccc(F)cc1)c1cccc(F)n1 [Compound 5d]
[10]; [16]
  MIC: 0.06 to 1.95 µg/mL (≈ 0.241 to 7.82 µM)

## O=C(NNc1cccc(F)c1)c1ccccn1 [Compound 2a]
[1]
  MIC: 0.49 μg/mL^−1
[2]
  MIC: 0.24 μg/mL^−1
[3]
  MIC: 0.49 μg/mL^−1
[4]
  MIC: 0.12 μg/mL^−1
[5]
  MIC: ≤0.06 μg/mL^−1
[6]
  MIC: 0.24 μg/mL^−1
[7]
  MIC: 0.98 μg/mL^−1
[8]
  MIC: 0.24 μg/mL^−1
[9]
  MIC: 1.95 μg/mL^−1
[11]
  concentration active in prevention of biofilm formation: 7.8 j·tg mL^−1

## O=C(NNc1ccc(F)cc1F)c1ncc(F)cc1F [Compound 7g]
[10]; [16]
  MIC: 0.12 to 7.8 µg/mL (≈ 0.421 to 27.3 µM)

## O=C(NNc1ccc(F)cc1F)c1ccc(F)cn1 [Compound 3g]
[10]; [16]
  MIC: 0.12 to 7.8 µg/mL (≈ 0.449 to 29.2 µM)
